The supplement of paper PMC10307832

Experiments:
Experiment in all cases: relative viability (nuclei count vs DMSO), 5 days (fraction); higher = more cells survive
[1] = compound: Cc1cc(Nc2cc(N3CCN(C)CC3)nc(Sc3ccc(NC(=O)C4CC4)cc3)n2)n[nH]1 [Tozasertib] + N=C(N)NC(=N)NCCc1ccccc1 [Phenformin] (partner 250 µM)
Procedure, shortened: (§1)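 Lung cancer cell lines in 1536-well plates got either a single drug or a fixed anchor-drug dose together with five library-drug doses (not always all listed) in √10 steps, by pin tool, on the day after seeding. Nuclei were counted after 5 days, and relative viability is the treated-to-vehicle ratio of nuclei counts. Values are medians of duplicate plates.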

[2] = compound: Cc1cc(Nc2cc(N3CCN(C)CC3)nc(Sc3ccc(NC(=O)C4CC4)cc3)n2)n[nH]1 [Tozasertib] + Cc1nc(Nc2ncc(C(=O)Nc3c(C)cccc3Cl)s2)cc(N2CCN(CCO)CC2)n1 [Dasatinib] (partner 0.075 µM)
Procedure, shortened: as §1

[3] = compound: Cc1cc(Nc2cc(N3CCN(C)CC3)nc(Sc3ccc(NC(=O)C4CC4)cc3)n2)n[nH]1 [Tozasertib] + CCNC(=O)c1noc(-c2cc(C(C)C)c(O)cc2O)c1-c1ccc(CN2CCOCC2)cc1 [Luminespib] (partner 0.01 µM)
Procedure, shortened: as §1

[4] = compound: Cc1cc(Nc2cc(N3CCN(C)CC3)nc(Sc3ccc(NC(=O)C4CC4)cc3)n2)n[nH]1 [Tozasertib] + Nc1ncn([C@H]2C[C@H](O)[C@@H](CO)O2)c(=O)n1 [Decitabine] (partner 2 µM)
Procedure, shortened: as §1

[5] = compound: Cc1cc(Nc2cc(N3CCN(C)CC3)nc(Sc3ccc(NC(=O)C4CC4)cc3)n2)n[nH]1 [Tozasertib] + O=C(c1cc(Cc2n[nH]c(=O)c3ccccc23)ccc1F)N1CCN(C(=O)C2CC2)CC1 [Olaparib] (partner 8 µM)
Procedure, shortened: as §1

| Cell Line | relative viability ([1]; first compound 0.004 µM) | relative viability ([1]; first compound 0.01265 µM) | relative viability ([1]; first compound 0.04 µM) | relative viability ([1]; first compound 0.1265 µM) | relative viability ([2]; first compound 0.004 µM) | relative viability ([2]; first compound 0.01265 µM) | relative viability ([2]; first compound 0.04 µM) | relative viability ([2]; first compound 0.1265 µM) | relative viability ([3]; first compound 0.004 µM) | relative viability ([3]; first compound 0.01265 µM) | relative viability ([3]; first compound 0.04 µM) | relative viability ([3]; first compound 0.1265 µM) | relative viability ([4]; first compound 0.004 µM) | relative viability ([4]; first compound 0.01265 µM) | relative viability ([4]; first compound 0.04 µM) | relative viability ([4]; first compound 0.1265 µM) | relative viability ([5]; first compound 0.004 µM) | relative viability ([5]; first compound 0.01265 µM) | relative viability ([5]; first compound 0.04 µM) | relative viability ([5]; first compound 0.1265 µM) |
| --- | --- | --- | --- | --- | --- | --- | --- | --- | --- | --- | --- | --- | --- | --- | --- | --- | --- | --- | --- | --- |
| HARA | 0.365 | 0.44 | 0.493 | 0.444 | 0.286 | 0.281 | 0.336 | 0.303 | 0.659 | 0.681 | 0.496 | 0.484 | 0.495 | 0.486 | 0.572 | 0.203 | 0.821 | 1.2 | 0.983 | 0.349 |
| PC-14 | 0.248 | 0.359 | 0.556 | 0.257 | – | 0.292 | 0.254 | 0.132 | – | 0.114 | 0.179 | 0.129 | – | 0.21 | 0.184 | 0.128 | – | 0.208 | 0.256 | 0.224 |
| EPLC-272H | 0.307 | 0.337 | 0.256 | 0.275 | 0.313 | 0.399 | 0.39 | 0.291 | 0.267 | 0.307 | 0.197 | 0.288 | 0.369 | 0.325 | 0.368 | 0.318 | 0.729 | – | – | 0.341 |
| NCI-H1355 | 0.469 | 0.424 | 0.459 | 0.367 | 0.691 | 0.706 | 0.843 | 0.49 | 0.643 | 0.738 | 0.689 | 0.58 | 0.357 | 0.35 | 0.33 | 0.357 | 0.748 | 0.694 | 0.689 | 0.545 |
| NCI-H1944 | 0.203 | 0.211 | 0.211 | 0.167 | 0.217 | 0.217 | 0.206 | 0.147 | 0.717 | 0.706 | 0.866 | 0.414 | 0.404 | 0.396 | 0.403 | 0.349 | 0.406 | 0.38 | 0.398 | 0.287 |
| NCI-H460 | 0.529 | 0.463 | 0.578 | 0.159 | 0.546 | 0.546 | 0.62 | 0.318 | 0.031 | 0.0376 | 0.0324 | 0.0295 | 0.456 | 0.53 | 0.493 | 0.284 | 0.399 | 0.336 | 0.372 | 0.3 |
| NCI-H322M | 0.798 | – | 0.799 | 0.481 | 0.263 | 0.263 | 0.257 | 0.224 | 0.805 | 0.996 | 0.851 | 0.564 | 0.656 | 0.661 | 0.675 | 0.618 | 0.788 | 0.843 | 0.863 | 0.559 |
| NCI-H1666 | 0.605 | 0.558 | 0.562 | 0.464 | 0.793 | 0.71 | 0.803 | 0.554 | 0.957 | 1.03 | 0.968 | 0.859 | 0.746 | 0.68 | 0.678 | 0.521 | 0.717 | 0.727 | 0.729 | 0.705 |
| 201T | 0.496 | 0.432 | 0.448 | 0.415 | 0.593 | 0.503 | 0.714 | 0.555 | 1.12 | 1.06 | – | 1.11 | 0.854 | 0.844 | 0.874 | 0.83 | 0.846 | 0.838 | 0.849 | 0.814 |
| LC-2-ad | 0.618 | 0.548 | 0.514 | 0.299 | 0.624 | 0.565 | 0.482 | 0.236 | 1.09 | 0.95 | 0.821 | 0.544 | 0.87 | 0.792 | 0.798 | – | 0.732 | 0.677 | 0.602 | 0.608 |
| NCI-H1755 | 0.593 | 0.597 | 0.592 | 0.483 | 0.44 | 0.486 | 0.474 | 0.312 | 0.259 | 0.386 | 0.322 | 0.413 | 0.744 | – | 0.62 | 0.644 | 0.854 | 0.879 | 0.822 | 0.59 |
| NCI-H2342 | 0.635 | 0.607 | 0.57 | 0.465 | 0.338 | 0.293 | 0.314 | 0.292 | 0.646 | – | 0.697 | 0.767 | 0.678 | 0.738 | 0.723 | 0.766 | 0.43 | 0.44 | 0.471 | 0.443 |
| BEN | 0.277 | 0.253 | 0.296 | 0.252 | 0.372 | 0.354 | 0.363 | 0.287 | 0.302 | 0.279 | 0.332 | 0.268 | 0.739 | 0.688 | 0.755 | 0.501 | – | 1.09 | 0.931 | 0.956 |
| EKVX | 0.256 | 0.212 | 0.23 | 0.222 | 0.494 | 0.606 | 0.471 | – | 0.753 | 0.872 | 0.827 | 0.694 | 0.265 | 0.345 | 0.354 | 0.316 | 0.93 | 0.773 | 0.798 | 0.688 |
| SW 1573 | 0.35 | 0.393 | 0.361 | 0.284 | 0.505 | 0.43 | 0.361 | 0.0939 | 0.25 | 0.239 | 0.139 | 0.228 | 0.351 | 0.463 | 0.544 | 0.176 | 0.479 | 0.452 | 0.456 | 0.208 |
| NCI-H441 | 0.955 | 0.852 | 0.937 | 0.768 | 0.655 | 0.643 | – | 0.474 | 0.361 | 0.323 | 0.312 | 0.261 | 0.226 | 0.222 | 0.25 | 0.261 | 0.625 | 0.425 | 0.49 | 0.459 |
